Measurements reported in publication PMC11995724, “Antibiotic target discovery by integrated phenotypic and activity-based profiling of electrophilic fragments” (Cell chemical biology, 2025).

Assay: in vitro
Conditions: human, hek293t cells

Compound | viability at 48 h, 25 µM [%]
CC(Cl)C(=O)NCC1CC(=O)N(c2ccccc2)C1 (centres unmarked) [7-O20, 2-chloro-N-[(5-oxo-1-phenylpyrrolidin-3-yl)methyl]propanamide] | 85.1
C=CC(=O)NC(C)(C)c1noc(CCC)n1 [1-N10, N-[2-(5-propyl-1,2,4-oxadiazol-3-yl)propan-2-yl]prop-2-enamide] | 91.9
O=C(CCl)NC(C1CC1)C1CC1 [6-C22, 2-chloro-N-(dicyclopropylmethyl)acetamide] | 66.4
CC(Cl)C(=O)N1CCCCC1C1CCCN(C(=O)C(F)(F)F)C1 (centres unmarked) [6-F16, 2-chloro-1-[1'-(2,2,2-trifluoroacetyl)-[2,3'-bipiperidin]-1-yl]propan-1-one] | 105
C=CC(=O)N1CCC(C(=O)NC2CCCc3cc(F)ccc32)CC1 (centres unmarked) [2-K18, N-(6-fluoro-1,2,3,4-tetrahydronaphthalen-1-yl)-1-(prop-2-enoyl)piperidine-4-carboxamide] | 94.2
CC(Cl)C(=O)N1CCCC(n2ccc(C(F)(F)F)n2)C1 (centres unmarked) [7-A08, 2-chloro-1-{3-[3-(trifluoromethyl)-1H-pyrazol-1-yl]piperidin-1-yl}propan-1-one] | 80.7
O=C(CCl)NC(c1ccc(F)c(Cl)c1)C(F)(F)F (centres unmarked) [7-D16, 2-chloro-N-[1-(3-chloro-4-fluorophenyl)-2,2,2-trifluoroethyl]acetamide] | 0.544
C=CC(=O)N1CCC(Cc2ccccc2)CC1 [2-O10, 1-(4-benzylpiperidin-1-yl)prop-2-en-1-one] | 73
N#CC(=Cc1ccc(C#N)cc1)C(=O)Nc1cccc2ccccc12 [8-O16, 2-cyano-3-(4-cyanophenyl)-N-(naphthalen-1-yl)prop-2-enamide] | 38.3
Cc1noc(CC(NC(=O)CCl)c2ccccc2)n1 (centres unmarked) [5-E04, 2-chloro-N-[2-(3-methyl-1,2,4-oxadiazol-5-yl)-1-phenylethyl]acetamide] | 29.3
COCC(NC(=O)C(C)Cl)c1ccccn1 (centres unmarked) [6-B13, 2-chloro-N-[2-methoxy-1-(pyridin-2-yl)ethyl]propanamide] | 106
CC(C)N(c1ccccc1)c1ccc(NC(=O)CCl)cc1 [6-I17, 2-chloro-N-{4-[phenyl(propan-2-yl)amino]phenyl}acetamide] | 0.67
CC(Cl)C(=O)N1CCC(Cc2ccncc2)C1 (centres unmarked) [6-N11, 2-chloro-1-{3-[(pyridin-4-yl)methyl]pyrrolidin-1-yl}propan-1-one] | 106
O=C1C=CC(=O)N1c1ccccc1Sc1ccc(Cl)cc1 [10-A03, 1-{2-[(4-chlorophenyl)sulfanyl]phenyl}-2,5-dihydro-1H-pyrrole-2,5-dione] | 7.21
O=C(CCl)NC1CCSc2ccc(F)cc21 (centres unmarked) [5-M09, 2-chloro-N-(6-fluoro-3,4-dihydro-2H-1-benzothiopyran-4-yl)acetamide] | 0.504
C=CC(=O)N1CCCC(C(=O)O)C1 (centres unmarked) [1-G12, 1-(prop-2-enoyl)piperidine-3-carboxylic acid] | 60.4
C=CC(=O)NC(c1ccc(F)cc1)c1ccccn1 (centres unmarked) [3-N14, N-[(4-fluorophenyl)(pyridin-2-yl)methyl]prop-2-enamide] | 97
C=CC(=O)N1CCC(c2noc3cc(F)ccc23)CC1 [3-I07, 1-[4-(6-fluoro-1,2-benzoxazol-3-yl)piperidin-1-yl]prop-2-en-1-one] | 48.2
CN1C(=O)C(=C(C#N)C(=O)NCc2ccc(Cl)cc2)c2ccccc21 [8-K17, N-[(4-chlorophenyl)methyl]-2-cyano-2-(1-methyl-2-oxo-2,3-dihydro-1H-indol-3-ylidene)acetamide] | 78.3

Compound | viability at 48 h, 25 µM [%]
C=CC(=O)NCCC(=O)Nc1nc2n(n1)CCCC2 [2-M14, N-[2-({5H,6H,7H,8H-[1,2,4]triazolo[1,5-a]pyridin-2-yl}carbamoyl)ethyl]prop-2-enamide] | 109
CC1(C)CN(C(=O)CCl)CCO1 [6-C05, 2-chloro-1-(2,2-dimethylmorpholin-4-yl)ethan-1-one] | 2.63
O=C(CCl)NCc1ccnn1C1CCCC1 [7-H08, 2-chloro-N-[(1-cyclopentyl-1H-pyrazol-5-yl)methyl]acetamide] | 0.996
CNC(=O)c1ccc(O)c(NC(=O)CCl)c1 [5-C10, 3-(2-chloroacetamido)-4-hydroxy-N-methylbenzamide] | 114
N#CC(=Cc1ccc(-c2ccccc2Cl)o1)C(=O)N1CCCCC1 [8-F20, 3-[5-(2-chlorophenyl)furan-2-yl]-2-(piperidine-1-carbonyl)prop-2-enenitrile] | 66.6
N#CC(=Cc1cc(Cl)ccc1O)C(=O)Nc1cccc2ccccc12 [9-P17, 3-(5-chloro-2-hydroxyphenyl)-2-cyano-N-(naphthalen-1-yl)prop-2-enamide] | 130
C=CC(=O)NCc1ccc(C(=O)N2CCCC2)cc1 [3-O05, N-{[4-(pyrrolidine-1-carbonyl)phenyl]methyl}prop-2-enamide] | 71.6
Cc1nn(-c2ccccc2)c(Cl)c1C=C(C#N)C(=O)NC(C)C [9-J17, 3-(5-chloro-3-methyl-1-phenyl-1H-pyrazol-4-yl)-2-cyano-N-(propan-2-yl)prop-2-enamide] | 98.2
CC(Cl)C(=O)NCCc1cn(C)nn1 (centres unmarked) [7-A14, 2-chloro-N-[2-(1-methyl-1H-1,2,3-triazol-4-yl)ethyl]propanamide] | 82.7
N#CC(=Cc1ccc(C#N)cc1)C(=O)Nc1ccc(F)c(Cl)c1 [9-A22, N-(3-chloro-4-fluorophenyl)-2-cyano-3-(4-cyanophenyl)prop-2-enamide] | 102
CCOC=C(C#N)C(=O)N1CCN(S(=O)(=O)c2cc[nH]n2)CC1 [9-D06, 3-ethoxy-2-[4-(1H-pyrazole-3-sulfonyl)piperazine-1-carbonyl]prop-2-enenitrile] | 110
O=C(CCl)Nc1cccc(OCc2ccccc2)c1 [5-I04, N-[3-(benzyloxy)phenyl]-2-chloroacetamide] | 0.885
Cc1nc(CNC(=O)N2CCSSCC2)cs1 [10-O18, N-[(2-methyl-1,3-thiazol-4-yl)methyl]-1,2,5-dithiazepane-5-carboxamide] | 112
C=CC(=O)NCc1cnc(-c2ccc(C(F)(F)F)cc2)s1 [1-C13, N-({2-[4-(trifluoromethyl)phenyl]-1,3-thiazol-5-yl}methyl)prop-2-enamide] | 75.8
COc1ccc(CNC(=O)C(C)Cl)cc1OC (centres unmarked) [6-P10, 2-chloro-N-[(3,4-dimethoxyphenyl)methyl]propanamide] | 113
CCS(=O)(=O)N1CCc2cc(C(=O)CCl)ccc21 [10-E18, 2-chloro-1-[1-(ethanesulfonyl)-2,3-dihydro-1H-indol-5-yl]ethan-1-one] | 1.16
COC(=O)c1c(C(=O)CCl)c(C)n(C2CC2)c1C [10-H03, methyl 4-(2-chloroacetyl)-1-cyclopropyl-2,5-dimethyl-1H-pyrrole-3-carboxylate] | 93.4
Cc1nnsc1CNC(=O)C(C)Cl (centres unmarked) [7-M07, 2-chloro-N-[(4-methyl-1,2,3-thiadiazol-5-yl)methyl]propanamide] | 89
C=CC(=O)Nc1ccoc1C(=O)c1ccc(C)cc1 [1-A04, N-[2-(4-methylbenzoyl)furan-3-yl]prop-2-enamide] | 0.123
